Test results as given in patent US7122520B2, “Methods of modulating appetite using agouti-related transcript polypeptides” (Amgen Inc., priority 1996, dated 2006).
Ends that are not written are not given here.

Legend:
food intake of rats = assay: Feeding behavior of rats treated with ART (intracerebroventricular injection); assay type: in vivo, Long-Evans male rats
Protocol: Long-Evans male rats weighing 300–500 grams were chronically implanted in the brain with a 22 gauge cannula aimed at the lateral ventricle. The steriotaxic coordinates for the canulas were approximately: 0.8 mm anterior/posterior; 1.4 mm medial/lateral; and 3.5 mm dorsal/ventral. A 3.5 mm, 28 gauge stylet remained inside the implanted cannula until the animal was ready for an injection. ART peptide or control solutions were administered with a 28 gauge injector that extended about 1 mm beyond the tip of the cannula.
ART peptide was dissolved in PBS (pH about 7.0) and injected into the lateral ventricle at doses ranging from about 0.075 nmol to about 7.5 nmol in a volume of about 2 μl. Controls were PBS and an unfolded version of ART at about 7.5 nmol. Feeding measurements were taken from pre-weighed dishes containing a mixture of ground rodent chow, sugar, and condensed milk. (45%:28%:27%). Rats were offered this mixture along with their regular chow about 24 hours prior to injection. About one and one half hours prior to infusion, the regular chow was removed, but the rats were allowed to continue feeding on the sweetened mixture. Injections were done at 8:30 am or at 8:30 pm. Food intake was assessed by weighing the dishes over time at 90 minutes, 4 hours, 8 hours, 12 hours, and 24 hours after injection. 10–12 rats were used per group.

feeding response of rats = settings: injection into the brain of rats; cited from earlier work
MC1 receptor = molecular target: T1, MC1 receptor (Mus musculus, UniProt Q01727); settings: B16F10 mouse melanoma cell cultures; cited from earlier work
T1 construct: at the MC1 receptor in B16F10 mouse melanoma cell cultures; endogenous in cells; host or cells: B16F10 mouse melanoma cells
T1 sequence (Q01727 whole entry): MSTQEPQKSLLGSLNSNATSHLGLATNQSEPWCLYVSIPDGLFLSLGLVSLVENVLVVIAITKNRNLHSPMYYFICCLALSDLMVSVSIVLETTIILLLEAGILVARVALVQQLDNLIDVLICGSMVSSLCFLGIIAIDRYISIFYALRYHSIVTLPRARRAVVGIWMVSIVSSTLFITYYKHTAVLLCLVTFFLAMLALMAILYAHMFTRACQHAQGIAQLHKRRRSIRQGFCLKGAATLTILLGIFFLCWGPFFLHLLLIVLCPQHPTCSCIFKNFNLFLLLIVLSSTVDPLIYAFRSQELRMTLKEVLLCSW

Molecule: folded ART: synthetic peptide containing amino acids 79–132 of ART (SEQ ID NO:8), refolded in Tris-HCl/urea (REPRSSRRCVRLHESCLGQQVPCCDPCATCYCRFFNAFCYCRKLGTAMNPCSRT; cysteine pairing not given here; also: refolded)
- food intake (cumulative amount of food consumed) (food intake of rats; injection into lateral ventricle, 0.075-7.5 nmol in about 2 μl, measured 90 minutes to 24 hours after injection, vs PBS and unfolded ART controls): increased their food intake as compared to controls
- relation between amount of ART injected and amount of food eaten (food intake of rats; lateral ventricle, doses about 0.075 nmol to about 7.5 nmol): correlation between the amount of ART injected and the amount of food eaten

Molecule: melanin concentrating hormone (DFDMLRCMLGRVYRPCWQV; ends and bridges not checked; cysteine pairing not given here; UniProt P20382 147-165, looked up) [MCH]
- feeding response (feeding response of rats): stimulates a feeding response

B1: mouse agouti protein: 131 amino acid secreted protein encoded by the mouse agouti gene (protein, UniProt Q03288 23-131, looked up)
Agouti-signaling protein: HLALEETLGDDRSLRSNSSMNSLDFSSVSIVALNKKSKKISRKEAEKRKRSSKKKASMKKVARPPPPSPCVATRDSCKPPAPACCDPCASCQCRFFGSACTCRVLNPNC
- antagonism of a-MSH at the MC1 receptor (MC1 receptor): potent antagonist
